Test results taken from ChEMBL document CHEMBL1201862, “PubChem BioAssay data set” (2004).
Calls of active or inactive are those of the source.

How the values were obtained:
[1] = molecular target: Heat shock protein HSP 90-alpha (Homo sapiens, UniProt P07900); format: functional, organism-based
Albumin = Albumin (Bos taurus, UniProt P02769); test: Counterscreen for inhibitors of T-cell receptor (TCR)-CD3 interaction: Fluorescence-based biochemical high throughput dose response assay to identify inhibitors of T-cell receptor (TCR)-CD3 interaction using a TAMRA-labeled BSA probe.; format: functional
Chain of Albumin (P02769 whole entry): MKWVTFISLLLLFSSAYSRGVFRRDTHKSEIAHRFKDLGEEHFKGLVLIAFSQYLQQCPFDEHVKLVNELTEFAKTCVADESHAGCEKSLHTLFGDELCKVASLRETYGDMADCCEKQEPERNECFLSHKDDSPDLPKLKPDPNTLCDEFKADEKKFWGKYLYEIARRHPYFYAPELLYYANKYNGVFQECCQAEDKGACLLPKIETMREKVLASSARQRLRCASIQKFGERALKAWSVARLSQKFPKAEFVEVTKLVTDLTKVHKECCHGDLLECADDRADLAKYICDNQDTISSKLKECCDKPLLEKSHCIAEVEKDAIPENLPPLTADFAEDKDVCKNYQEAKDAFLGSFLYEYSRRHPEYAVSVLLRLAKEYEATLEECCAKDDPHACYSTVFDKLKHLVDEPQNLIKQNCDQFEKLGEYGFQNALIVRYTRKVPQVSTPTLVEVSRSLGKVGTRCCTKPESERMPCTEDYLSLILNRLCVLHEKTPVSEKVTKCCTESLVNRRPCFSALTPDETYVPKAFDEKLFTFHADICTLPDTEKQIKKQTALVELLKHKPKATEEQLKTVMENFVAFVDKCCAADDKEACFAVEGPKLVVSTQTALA

Streptococcus = test: Group A Streptococcus viability loss, dose response, counter-screen for streptokinase expression inhibitor project, luminescence, BacTiterGlo (AID 1915); format: functional, organism-based;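 further: potency for reduction of bacterial viability or growth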
[2] = system: Streptococcus sp. 'group A'; test: growth inhibition of control SK(-) GAS strain, dose response, counter-screen for streptokinase expression inhibitor project, luminescence, kanamycin, BacTiterGlo, confirmation (AID 1900); format: functional, organism-based
Streptokinase A = molecular target: T1, Streptokinase A (Streptococcus pyogenes serotype M1, UniProt P10520); test: S. pyogenes streptokinase expression inhibitors, potency, dose response, plasminogen activation absorbance, OD405 (AID 1914); format: functional, Streptococcus pyogenes M1 GAS;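 further: secreted streptokinase activity via plasminogen activation per viability signal from cell pellet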
T1 sequence (P10520 whole entry): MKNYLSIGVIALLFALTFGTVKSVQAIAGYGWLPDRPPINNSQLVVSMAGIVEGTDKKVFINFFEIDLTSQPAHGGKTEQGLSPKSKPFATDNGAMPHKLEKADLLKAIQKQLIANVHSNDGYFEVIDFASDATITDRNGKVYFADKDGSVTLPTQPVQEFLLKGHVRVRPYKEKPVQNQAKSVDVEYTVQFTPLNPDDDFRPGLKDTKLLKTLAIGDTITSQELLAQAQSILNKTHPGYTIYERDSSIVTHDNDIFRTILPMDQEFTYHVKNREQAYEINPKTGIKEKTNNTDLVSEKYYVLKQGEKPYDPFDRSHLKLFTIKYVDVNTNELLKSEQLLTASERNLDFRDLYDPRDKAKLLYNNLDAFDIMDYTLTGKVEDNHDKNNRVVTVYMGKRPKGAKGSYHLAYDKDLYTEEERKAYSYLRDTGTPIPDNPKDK

[3] = NIH-3T3 fibroblast cytotoxicity, dose response, cytotoxicity control, cell-based, fluorescence, Alamar Blue, secondary assay (AID 2327); format: functional;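 further: NIH-3T3 mouse fibroblasts cultured with fluconazole at 8 µg/mL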
[4] = C. albicans growth with fluconazole, confirmation, fluorescence, retest (AID 2467); format: functional, cell-based
[5] = molecular target: T2, Mannose-6-phosphate isomerase (Homo sapiens, UniProt P34949); test: PMI enzyme inhibitors, confirmation, biochemical, fluorescence intensity (AID 1535)
T2 sequence (P34949 whole entry): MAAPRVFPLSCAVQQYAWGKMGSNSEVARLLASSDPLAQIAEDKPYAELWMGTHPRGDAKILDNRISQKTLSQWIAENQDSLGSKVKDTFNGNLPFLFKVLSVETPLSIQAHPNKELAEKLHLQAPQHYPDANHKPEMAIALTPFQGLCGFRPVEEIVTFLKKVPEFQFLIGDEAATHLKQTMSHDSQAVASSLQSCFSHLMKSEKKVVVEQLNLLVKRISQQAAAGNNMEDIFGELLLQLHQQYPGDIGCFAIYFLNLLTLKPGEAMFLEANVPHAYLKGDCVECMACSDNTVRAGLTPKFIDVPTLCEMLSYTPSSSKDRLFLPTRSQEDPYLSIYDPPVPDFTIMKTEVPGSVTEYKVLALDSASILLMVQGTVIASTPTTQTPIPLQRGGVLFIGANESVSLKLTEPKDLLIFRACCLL

[6] = cytotoxicity toward DRD oncogenic fibroblasts, dose response, cell-based, non-viral oncogenic, luminescence (AID 1934); format: functional; details: Homo sapiens
Vero [7] = test: cells; format: functional; details: Chlorocebus sabaeus
BJ [8] = test: cytotoxicity toward BJ-TERT-LT-ST fibroblasts, dose response, cell-based, RAS-independent, luminescence (AID 1935); format: functional; details: Homo sapiens;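 further: BJ fibroblasts immortalized with TERT plus LT and ST oncogenes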
BJ [9] = test: cytotoxicity toward BJ-TERT fibroblasts, dose response, cell-based, RAS-independent, luminescence (AID 1933); format: functional; details: Homo sapiens
Vero [10] = test: host cell cytotoxicity of antiviral hits, dose response, cytotoxicity control for West Nile virus antiviral project, secondary assay (AID 1650); format: functional; details: Chlorocebus sabaeus
Vero [11] = test: cells; format: functional, cell-based; details: Chlorocebus sabaeus
BJ [12] = test: cells; format: functional, cell-based; details: Homo sapiens
HeLa = test: HeLa cell cytotoxicity, dose response, cytotoxicity control for MITF activator project, CellTiter-Glo luminescence, cherry-pick samples (AID 540259); format: functional, cell-based; details: Homo sapiens
Vero [13] = test: Vero cell cytotoxicity, cytotoxicity control for flavivirus capping enzyme inhibitors (AID 588742); format: functional; details: Chlorocebus sabaeus
Genome polyprotein = Genome polyprotein (dengue virus type 2, UniProt P29990); test: Dengue-2 NS5 methyltransferase inhibitors, primary screen, biochemical, confirmation dose response (AID 588689); format: functional
Chain of Genome polyprotein (P29990 2492-3391 limits assumed): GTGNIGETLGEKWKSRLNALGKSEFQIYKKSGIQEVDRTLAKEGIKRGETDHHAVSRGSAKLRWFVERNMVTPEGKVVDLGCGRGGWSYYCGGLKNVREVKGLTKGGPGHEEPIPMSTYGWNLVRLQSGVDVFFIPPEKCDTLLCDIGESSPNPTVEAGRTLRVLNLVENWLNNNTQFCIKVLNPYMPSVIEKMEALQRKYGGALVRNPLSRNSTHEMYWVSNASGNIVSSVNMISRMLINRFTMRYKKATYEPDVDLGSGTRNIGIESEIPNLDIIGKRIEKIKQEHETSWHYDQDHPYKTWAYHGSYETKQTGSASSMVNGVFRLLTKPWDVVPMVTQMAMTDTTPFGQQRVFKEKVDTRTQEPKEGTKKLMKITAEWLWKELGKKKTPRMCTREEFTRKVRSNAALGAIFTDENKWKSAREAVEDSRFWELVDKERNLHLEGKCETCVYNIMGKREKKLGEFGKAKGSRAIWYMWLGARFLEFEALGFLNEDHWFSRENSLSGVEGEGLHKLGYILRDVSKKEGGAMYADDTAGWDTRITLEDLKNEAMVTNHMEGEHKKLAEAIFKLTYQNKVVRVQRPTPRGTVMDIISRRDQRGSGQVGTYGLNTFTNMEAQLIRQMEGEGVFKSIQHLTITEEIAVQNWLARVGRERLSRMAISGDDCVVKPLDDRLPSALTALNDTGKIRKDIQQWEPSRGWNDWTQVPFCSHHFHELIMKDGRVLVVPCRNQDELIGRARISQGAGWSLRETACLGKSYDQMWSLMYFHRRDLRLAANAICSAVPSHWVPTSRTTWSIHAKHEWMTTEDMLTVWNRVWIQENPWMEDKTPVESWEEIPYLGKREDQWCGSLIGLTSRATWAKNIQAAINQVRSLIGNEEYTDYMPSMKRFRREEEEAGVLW

[14] = molecular target: Induced myeloid leukemia cell differentiation protein Mcl-1 (Homo sapiens, UniProt Q07820); format: functional
Chain of Induced myeloid leukemia cell differentiation protein Mcl-1 (Q07820 whole entry): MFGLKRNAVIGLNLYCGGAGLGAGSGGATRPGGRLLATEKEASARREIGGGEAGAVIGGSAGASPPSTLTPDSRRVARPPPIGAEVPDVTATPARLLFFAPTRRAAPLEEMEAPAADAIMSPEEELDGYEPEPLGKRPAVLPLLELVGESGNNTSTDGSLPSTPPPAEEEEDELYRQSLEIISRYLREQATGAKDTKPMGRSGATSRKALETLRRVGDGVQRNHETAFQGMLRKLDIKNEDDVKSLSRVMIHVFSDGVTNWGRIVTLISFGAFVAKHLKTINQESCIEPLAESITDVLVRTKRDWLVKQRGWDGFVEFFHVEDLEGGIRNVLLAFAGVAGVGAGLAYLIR

Nonstructural protein 1 = Nonstructural protein 1 (Influenza A virus, UniProt Q194T2); format: functional, Influenza A virus (A/California/07/2009(H1N1))
Chain of Nonstructural protein 1 (Q194T2 whole entry): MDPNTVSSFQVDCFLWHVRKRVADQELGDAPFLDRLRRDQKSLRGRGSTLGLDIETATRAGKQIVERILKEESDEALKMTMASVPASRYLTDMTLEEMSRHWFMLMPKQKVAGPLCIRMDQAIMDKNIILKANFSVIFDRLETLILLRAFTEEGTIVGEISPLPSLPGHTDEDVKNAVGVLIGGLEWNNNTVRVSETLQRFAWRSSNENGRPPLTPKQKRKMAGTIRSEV

H9c2 = test: cells; format: functional, cell-based; details: Rattus norvegicus, H9c2, Myocardium;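 further: confirmatory concentration-response retest of ultra-high-throughput screening hits for modulation of myocardial damage; cell death induced by hydrogen peroxide oxidative stress; compound pretreatment for 60 min then peroxide exposure for 2 h; potency is for protecting the cells against peroxide damage rather than for killing them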
[15] = microbe, parasite or virus in culture; format: functional; details: Mycobacterium tuberculosis
cells [16] = format: functional
[17] = THP-1 cell cytotoxicity, dose response, cytotoxicity control for non-replicating M. tuberculosis project (AID 489025); format: functional
[18] = Vero E6 cell cytotoxicity, dose response, cytotoxicity control for non-replicating M. tuberculosis project, secondary assay (AID 492998); format: functional, VeroE6; details: Vero C1008
cells [19] = format: functional, cell-based
cells [20] = format: functional, cell-based; remark: listed apart in the source
Cytochrome P450 3A4 = Cytochrome P450 3A4 (Homo sapiens, UniProt P08684); details: Potency;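 further: confirmatory qHTS run detecting inhibitors and substrates of CYP3A4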
Chain of Cytochrome P450 3A4 (P08684 whole entry): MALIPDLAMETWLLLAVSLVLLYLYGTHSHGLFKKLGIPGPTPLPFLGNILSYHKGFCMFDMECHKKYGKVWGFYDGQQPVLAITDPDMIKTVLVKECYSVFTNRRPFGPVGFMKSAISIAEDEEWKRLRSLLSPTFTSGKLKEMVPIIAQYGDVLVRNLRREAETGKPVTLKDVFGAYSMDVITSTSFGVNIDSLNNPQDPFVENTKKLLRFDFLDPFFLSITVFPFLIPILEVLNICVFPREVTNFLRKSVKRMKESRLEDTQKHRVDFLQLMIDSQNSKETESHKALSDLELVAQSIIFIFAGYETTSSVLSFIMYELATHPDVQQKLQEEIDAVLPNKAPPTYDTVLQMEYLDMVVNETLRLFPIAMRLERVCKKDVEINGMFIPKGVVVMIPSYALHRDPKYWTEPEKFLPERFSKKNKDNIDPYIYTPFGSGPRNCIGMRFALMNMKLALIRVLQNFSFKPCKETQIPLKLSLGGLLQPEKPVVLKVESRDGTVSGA

[21] = molecular target: T3, Tyrosine-protein phosphatase non-receptor type 5 (Homo sapiens, UniProt P54829); test: STEP phosphatase inhibitors, confirmation, biochemical, fluorescence intensity, uHTS hits (AID 602372); format: functional; details: read-out: IC50_Mean
T3 sequence (P54829 whole entry): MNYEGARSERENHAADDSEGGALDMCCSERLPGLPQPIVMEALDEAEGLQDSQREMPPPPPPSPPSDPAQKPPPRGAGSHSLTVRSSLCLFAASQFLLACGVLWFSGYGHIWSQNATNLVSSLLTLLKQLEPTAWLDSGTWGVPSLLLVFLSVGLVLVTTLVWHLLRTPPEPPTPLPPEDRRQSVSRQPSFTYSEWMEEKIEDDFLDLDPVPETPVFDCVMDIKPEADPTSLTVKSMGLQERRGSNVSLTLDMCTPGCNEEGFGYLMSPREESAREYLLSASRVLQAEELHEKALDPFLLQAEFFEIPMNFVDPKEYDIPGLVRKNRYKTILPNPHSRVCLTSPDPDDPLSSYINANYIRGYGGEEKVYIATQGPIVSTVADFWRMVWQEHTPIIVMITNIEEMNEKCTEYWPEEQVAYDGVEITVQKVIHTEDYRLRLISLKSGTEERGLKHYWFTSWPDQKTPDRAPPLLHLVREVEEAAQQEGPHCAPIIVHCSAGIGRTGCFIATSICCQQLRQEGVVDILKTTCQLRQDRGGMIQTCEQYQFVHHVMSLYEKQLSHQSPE

[22] = molecular target: T4, Carboxy-terminal domain RNA polymerase II polypeptide A small phosphatase 1 (Homo sapiens, UniProt Q9GZU7); test: inhibitors of CTDSP1, concentration-response testing, biochemical assay, absorbance-based, actives from ultra-high-throughput screening (AID 540297); format: functional
T4 sequence (Q9GZU7 whole entry): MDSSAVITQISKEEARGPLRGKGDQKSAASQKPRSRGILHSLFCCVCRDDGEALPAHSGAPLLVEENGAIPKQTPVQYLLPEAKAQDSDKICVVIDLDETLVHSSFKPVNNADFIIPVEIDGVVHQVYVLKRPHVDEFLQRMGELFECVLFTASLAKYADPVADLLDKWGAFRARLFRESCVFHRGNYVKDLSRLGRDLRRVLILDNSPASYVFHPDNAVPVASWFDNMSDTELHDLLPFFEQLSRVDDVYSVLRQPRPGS

[23] = molecular target: Dual specificity protein phosphatase 3 (Homo sapiens, UniProt P51452); test: VHR phosphatase inhibition, dose response, selectivity assay for STEP inhibitor project, biochemical (AID 602374); format: functional; details: read-out: IC50_Mean
Chain of Dual specificity protein phosphatase 3 (P51452 whole entry): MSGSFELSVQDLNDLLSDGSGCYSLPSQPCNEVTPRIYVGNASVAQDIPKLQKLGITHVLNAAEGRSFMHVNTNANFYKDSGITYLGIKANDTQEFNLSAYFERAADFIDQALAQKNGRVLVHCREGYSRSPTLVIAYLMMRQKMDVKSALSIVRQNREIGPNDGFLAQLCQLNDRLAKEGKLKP

[24] = molecular target: T5, Tyrosine-protein phosphatase non-receptor type 11 (Homo sapiens, UniProt Q06124); test: SHP2 phosphatase inhibition, dose response, selectivity assay for STEP inhibitor project, biochemical (AID 602367); format: functional; details: read-out: IC50_Mean
T5 sequence (Q06124 whole entry): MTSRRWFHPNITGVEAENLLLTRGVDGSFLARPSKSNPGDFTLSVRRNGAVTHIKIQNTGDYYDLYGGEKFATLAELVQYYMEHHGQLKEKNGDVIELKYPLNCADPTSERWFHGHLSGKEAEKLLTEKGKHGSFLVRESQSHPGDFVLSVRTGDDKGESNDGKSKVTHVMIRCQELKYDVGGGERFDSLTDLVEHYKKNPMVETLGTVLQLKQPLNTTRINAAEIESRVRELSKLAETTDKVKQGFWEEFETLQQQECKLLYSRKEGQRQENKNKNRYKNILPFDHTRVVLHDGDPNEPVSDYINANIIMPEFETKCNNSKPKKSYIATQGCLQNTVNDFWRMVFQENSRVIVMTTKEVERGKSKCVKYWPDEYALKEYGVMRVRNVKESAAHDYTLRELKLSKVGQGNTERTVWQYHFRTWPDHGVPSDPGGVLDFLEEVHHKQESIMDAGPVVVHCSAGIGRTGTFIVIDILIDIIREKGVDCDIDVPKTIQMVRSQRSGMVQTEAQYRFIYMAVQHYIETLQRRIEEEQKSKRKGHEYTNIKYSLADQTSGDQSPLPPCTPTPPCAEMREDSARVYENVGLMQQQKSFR

[25] = Luminescence Cell-Based Dose Retest to Confirm Inhibitors of Cancer Stem Cells. [Related pubchem assays (depositor defined):AID2717, AID2721]; format: functional; details: Homo sapiens
[26] = molecular target: T6, Ubiquitin-conjugating enzyme E2 N (Homo sapiens, UniProt P61088); format: functional;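 further: Dose-response confirmation in a TR-FRET assay detecting UBC13-driven polyubiquitin chain formation, inhibition measured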
T6 sequence (P61088 whole entry): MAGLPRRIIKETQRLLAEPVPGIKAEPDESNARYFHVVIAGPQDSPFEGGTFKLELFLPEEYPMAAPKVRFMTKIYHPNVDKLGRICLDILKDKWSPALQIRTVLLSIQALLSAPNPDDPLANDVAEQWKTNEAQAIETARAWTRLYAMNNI

COc1ccc(N(C(=O)c2ccncc2)S(=O)(=O)c2ccccc2)cc1
AC50 [1]: 1.77 µM (active)

O=C(NC(=S)NNC(=O)c1cccs1)c1ccccc1
IC50 (Albumin): > 94.1 µM (inactive)
EC50 (Streptococcus): 21.2 µM (active)
EC50 [2]: 3.79 µM (active)
EC50 (Streptokinase A): > 150 µM (not active)

COc1ccc(C)cc1NC(=O)NNC(=O)c1cc2ccccc2cc1O
EC50 [3]: 22.7 µM (inconclusive)
IC50 (Albumin): > 94.1 µM (inactive)
EC50 [4]: > 38 µM (not active)

COc1ccc(/N=c2\ssnc2Cl)cn1
IC50 [5]: 29.8 µM (active)

CCc1cc(C(=O)N2CCc3c([nH]c4ccccc34)C2c2ccc(OC)cc2F)no1 (centres undefined)
EC50 [6]: > 150 µM (inconclusive)
CC50 (Vero [7]): 20 µM (active)
EC50 (BJ [8]): > 150 µM (not active)
EC50 (BJ [9]): 28.3 µM (active)
CC50 (Vero [10]): 24.4 µM (active)
IC50 (Vero [11]): 1.74 µM (active)
EC50 (BJ [12]): > 150 µM (not active)

COC(=O)c1ccc2[nH]c(C3(O)CCCCC3)c(C)c2c1
AC50 (HeLa): 44.3 µM (active)

O=[N+]([O-])c1cc(Cl)cc(/C=N/NC(=S)Nc2ccc(S(=O)(=O)N3CCOCC3)cc2)c1O
CC50 (Vero [13]): 38.3 µM (active)
IC50 (Genome polyprotein): > 100 µM (active)
EC50 [3]: > 160 µM (inactive)
IC50 (Albumin): > 94.1 µM (inactive)
IC50 [14]: 3.47 µM (active)
EC50 [4]: > 38 µM (not active)
IC50 (Nonstructural protein 1): 3.52 µM (active)

Cc1[nH]c2ccc(C(=O)N3CCN(c4cccc(Cl)c4)CC3)cc2c1C
AC50 [1]: 7.72 µM (active)

O=C(CSc1nnc(-c2ccccc2)n1Cc1ccccc1)NNC(=O)c1ccccc1O
IC50 (Albumin): > 94.1 µM (inactive)
IC50 (H9c2): 33.7 µM (inactive)

Cc1ccc(CS/C(Nc2ccccc2C)=C(\C#N)C(=O)NCc2ccco2)c(C)c1
CC50 (Vero [10]): 15.2 µM (active)

O=C(N/N=C/c1cccc2cccnc12)[C@H]1C[C@@H]1c1ccccc1
CC50 [15]: > 40 µM (active)
IC50 (cells [16]): 33.1 µM (active)
CC50 [17]: 32.9 µM (active)
CC50 [18]: > 20 µM (active)
IC50 (H9c2): 11.2 µM (active)

COc1ccccc1OCc1cc(C(=O)N2CCN(C)C(c3ccccc3)C2)no1 (centres undefined)
AC50 [1]: 4.78 µM (active)

Cc1c(/C=N/NC(N)=O)c2ccccn2c1C(=O)c1ccncc1
EC50 (cells [19]): > 350 µM (not active)
EC50 (cells [20]): > 350 µM (not active)

CC1(C)CCCC2(C)C3C(O)CC2(C)C(O)C31 (centres undefined)
AC50 (Cytochrome P450 3A4): 31.6 µM (inconclusive)

CCOc1ccc(/C=N/NC(=O)c2cc3c(OC)cccc3[nH]2)cc1
IC50 [21]: 13.2 µM (active)
IC50 [22]: 3.08 µM (active)
IC50 [23]: 1.85 µM (active)
IC50 [24]: 1.65 µM (active)

COc1cc(CNCc2ccccn2)ccc1OCc1ccc(Cl)c(Cl)c1
CC50 (Vero [7]): > 25 µM (active)
AC50 (HeLa): 45.5 µM (active)

CC(C)(C)c1cc(-c2nc(N)nc(N)n2)c(O)c(C(C)(C)C)c1
AC50 [1]: 28.9 µM (active)
AC50 [25]: 3.65 µM (active)
CC50 [15]: 38.3 µM (active)
IC50 [26]: > 20 µM (inactive)

Cc1cc(/N=c2\ssnc2Cl)n[nH]1
IC50 [5]: 5.94 µM (active)

CC(C)(C)c1ccc(-c2cc(C(=O)NNC(=O)Nc3ccccc3)c3ccccc3n2)cc1
AC50 (HeLa): 69.9 µM (active)
